# US10030016B2 (Sunesis Pharmaceuticals, Inc., priority 2009, dated 2018)
# Where a name gives a salt, the structure may show the parent alone. Read-outs that look alike come from different tables or passages of the source.
# Key:
# [1] = system: phospho-akt (Thr308) in PC-3 cells; assay: Inhibition of phospho-akt (Thr308) in PC-3 cells, MSD phospho-akt 308 ELISA kit; assay type: cell-based; conditions: Homo sapiens, 2 hours, no serum, read-out: EC50
# How it was run: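 Serum-free 2 h compound exposure of overnight-seeded PC-3 cells, threefold dilution series; lysates analysed on blocked MSD plates (3% BSA) for Thr308-phosphorylated Akt, normalised between DMSO and 5 μM wortmannin wells.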
# PDK1 = PDK1 (Homo sapiens (Human), UniProt O15530); assay: PDK1 kinase assay (coupled PDK1/AKT/FAM-crosstide assay, IMAP fluorescence polarization); assay type: biochemical
# Sequence of PDK1 (O15530 51-359): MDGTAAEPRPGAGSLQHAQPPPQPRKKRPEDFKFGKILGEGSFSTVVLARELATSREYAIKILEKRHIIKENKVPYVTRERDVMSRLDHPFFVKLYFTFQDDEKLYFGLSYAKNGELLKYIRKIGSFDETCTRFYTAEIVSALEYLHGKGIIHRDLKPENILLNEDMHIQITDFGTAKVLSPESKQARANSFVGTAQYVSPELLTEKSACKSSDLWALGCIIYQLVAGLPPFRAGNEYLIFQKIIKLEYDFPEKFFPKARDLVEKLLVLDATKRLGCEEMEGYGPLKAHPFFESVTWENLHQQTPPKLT
# How it was run: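 Coupled cascade: 0.75 nM PDK1 (51-359) → 10 nM AKT2 (140-467-PIFtide) → 100 nM FAM-crosstide. ATP 40 μM, 25° C, 30 min. IMAP FP (ex 485/em 530), 2 h binding. ΔmP vs conc, 4-param fit.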
# [2] = inhibition of P308 Akt in PC-3 cells, MSD
# [3] = inhibition of phospo-PDK1 in vitro
# [4] = inhibition of P308 Akt in PC-3 cells using MSD
# [5] = PC-3, 2 h, inhibition of P308 Akt in PC-3 cells, MSD
# [6] = PC-3, 2 h, inhibition of P308 Akt in PC-3 cells using MSD
"EC50 [1, 2] [nM]",IC50 (PDK1; [3]) [nM],"EC50 [1, 4] [nM]",IC50 (PDK1; inhibition of PDK1 in vitro) [nM],Structure (SMILES),other results
1000 to 10000,100 to 1000,–,–,"CC[C@H](NC(=O)c1cccnc1NCc1ccc(-c2ccc3ncnc(N)c3c2)s1)c1ccc(F)cc1 [Example 3.43, (S)-2-((5-(4-aminoquinazolin-6-yl)thiophen-2-yl)methylamino)-N-(1-(4-fluorophenyl)propyl) nicotinamide (TFA salt)]",–
–,–,< 1000,< 100,"N#Cc1cnc(NCc2ccc(-c3cnc4[nH]c(=O)[nH]c4c3)cc2)c(C(=O)NCc2ccc(F)cc2)c1 [Example 358, 5-cyano-N-(4-fluorobenzyl)-2-(4-(2-oxo-2,3-dihydro-1H-imidazo[4,5-b]pyridin-6-yl)benzylamino)nicotinamide]",–
< 1000,100 to 1000,–,–,"C[C@H](NC(=O)c1cc(C(F)(F)F)cnc1NCc1ccc(-c2cc3c(N)ncnc3cn2)s1)c1ccc(F)cc1 [Example 8.12.7, 2-({[5-(4-aminopyrido [3,4-d]pyrimidin-6-yl)thiophen-2-yl]methyl}amino)-N-[(1S)-1-(4-fluorophenyl)ethyl]-5-(trifluoromethyl) pyridine-3-carboxamide]",–
1000 to 10000,< 100,–,–,"C[C@H](NC(=O)c1cc(S(N)(=O)=O)cnc1NCc1ccc(-c2ccc3ncnc(N)c3c2)s1)c1ccc(F)c(F)c1 [Example 8.7.3, 2-({[5-(4-aminoquinazolin-6-yl)thiophen-2-yl]methyl}amino)-N-[(1S)-1-(3,4-difluorophenyl)ethyl]-5-sulfamoylpyridine-3-carboxamide]",–
–,–,< 1000,< 100,"O=C(NCc1ccc(F)c(F)c1)c1cccnc1NCc1cc(-c2c[nH]c3ncc(-c4ccn[nH]4)cc23)ccn1 [Example 54, 2-((4-(5-(1H-pyrazol-5-yl)-1H-pyrrolo[2,3-b]pyridin-3-yl)pyridin-2-yl)methylamino)-N-(3,4-difluorobenzyl)nicotinamide]",–
–,–,1000 to 10000,< 100,COCCn1cc(-c2ccc(CNc3ncc(C(F)(F)F)cc3C(=O)Nc3ccc(F)cc3)cc2)c2c(N)ncnc21 [Example 431],–
–,–,1000 to 10000,< 100,CCN(CC)CCNC(=O)c1cc(-c2ccc(CNc3ncc(C#N)cc3C(=O)N[C@@H](C)c3ccc(F)cc3)cc2)cnc1N [Example 118],–
> 10000,100 to 1000,–,–,"CN(Cc1ccc(F)c(F)c1)C(=O)c1cccnc1NCc1ccc(-c2ccc3ncnc(N)c3c2)s1 [Example 3.13, 2-({[5-(4-aminoquinazolin-6-yl)thiophen-2-yl]methyl}amino)-N-(3,4-difluorobenzyl)-N-methylpyridine-3-carboxamide (TFA salt)]",–
> 10000,< 100,–,–,"CNC(=O)c1cc(S(=O)(=O)NCc2ccccc2)cnc1NCc1ccc(-c2ccc3ncnc(N)c3c2)s1 [Example 8.6.15, 2-(((5-(4-aminoquinazolin-6-yl)thiophen-2-yl)methyl)amino)-5-(N-benzylsulfamoyl)-N-methylnicotinamide]",–
1000 to 10000,< 100,–,–,"CC(C)Oc1cc(CNc2ncccc2C(=O)NCc2ccc(F)c(F)c2)cc(-c2c[nH]c3ncccc23)c1 [Example 5.7, N-(3,4-difluorobenzyl)-2-(3-isopropoxy-5-(1H-pyrrolo[2,3-b]pyridin-3-yl)benzylamino)nicotinamide]",–
< 1000,100 to 1000,–,–,"C[C@H](NC(=O)c1cc(S(C)(=O)=O)cnc1NCc1ccc(-c2ccc3ncnc(N)c3c2)s1)c1ccc(F)cc1 [Example 7.22.2, 2-({[5-(4-aminoquinazolin-6-yl)thiophen-2-yl]methyl}amino)-N-[(1S)-1-(4-fluorophenyl)ethyl]-5-(methylsulfonyl)pyridine-3-carboxamide]",–
1000 to 10000,< 100,–,–,"Nc1ncnc2ccc(-c3ccc(CNc4ncc(OCc5ccccc5)cc4C(=O)NCc4ccc(F)c(F)c4)s3)cc12 [Ex. 8.1.1, 2-({[5-(4-aminoquinazolin-6-yl)thiophen-2-yl]methyl}amino)-5-(benzyloxy)-N-(3,4-difluorobenzyl)pyridine-3-carboxamide]",–
–,–,< 1000,< 100,"N#Cc1ccc(NC(=O)c2nc(C#N)cnc2NCc2ccc(-c3cnc4[nH]nc(N)c4c3)cc2)cc1 [Example 425, 3-(4-(3-amino-1H-pyrazolo[3,4-b]pyridin-5-yl)benzylamino)-6-cyano-N-(4-cyanophenyl) pyrazine-2-carboxamide]",–
–,–,< 1000,< 100,"N#Cc1cnc(NCc2ccc(-c3cnc4[nH]nc(N)c4c3)cc2)c(C(=O)NCc2cncc(F)c2)c1 [Example 311, 2-(4-(3-amino-1H-pyrazolo [3,4-b]pyridin-5-yl)benzylamino)-5-cyano-N-((5-fluoropyridin-3-yl)-5-methyl)nicotinamide]",–
–,–,< 1000,< 100,"C[C@H](NC(=O)c1nc(C#N)cnc1N[C@H](CO)c1ccc(-c2cnc3[nH]nc(N)c3c2)cc1)c1ccc(F)c(F)c1 [Example 353, 3-((S)-1-(4-(3-amino-1H-pyrazolo[3,4-b]pyridin-5-yl)phenyl)-2-hydroxy-ethylamino)-6-cyano-N-((S)-1-(3,4-difluorophenyl)ethyl)pyrazine-2-carboxamide]",–
< 1000,< 100,–,–,"C=C(C)c1cnc(NCc2ccc(-c3ccc4ncnc(N)c4c3)s2)c(C(=O)NCc2ccc(F)c(F)c2)c1 [Ex. 8.13, 2-({[5-(4-aminoquinazolin-6-yl)thiophen-2-yl]methyl}amino)-N-(3,4-difluorobenzyl)-5-(prop-1-en-2-yl)pyridine-3-carboxamide]",–
–,–,< 1000,< 100,"C[C@H](NC(=O)c1nc(C#N)cnc1NCc1ccc(-c2cnc(N)c(OCCN)n2)cc1)c1ccc(F)c(F)c1 [Example 167, 3-{4-[5-Amino-6-(2-amino-ethoxy)-pyrazin-2-yl]-benzylamino}-6-cyano-pyrazine-2-carboxylic acid [(S)-1-(3,4-difluoro-phenyl)-ethyl]-amide]",–
–,–,< 1000,< 100,"CC(C)(N)CCc1nc(-c2ccc(CNc3ncc(C(F)(F)F)cc3C(=O)Nc3ccc(F)cc3)cc2)cnc1N [Example 83, 2-{4-[5-Amino-6-(3-amino-3-methyl-butyl)-pyrazin-2-yl]-benzylamino}-N-(4-fluoro-phenyl)-5-trifluoro-methyl-nicotinamide]",–
< 1000,< 100,–,–,"Nc1ncnc2ccc(-c3ccc(CNc4nc5ccccc5cc4C(=O)NCc4ccc(F)c(F)c4)s3)cc12 [Ex. 8.14.1, 2-({[5-(4-aminoquinazolin-6-yl)thiophen-2-yl]methyl}amino)-N-(3,4-difluorobenzyl) quinoline-3-carboxamide]",–
–,100 to 1000,–,–,"C[C@H](NC(=O)c1cccnc1NCc1ccc(-c2ccc3ncnc(N)c3c2)s1)c1ccccn1 [Example 3.58, (S)-2-(((5-(4-aminoquinazolin-6-yl)thiophen-2-yl)methyl)amino)-N-(1-(pyridin-2-yl)ethyl) nicotinamide (TFA salt)]","EC50 [1, 5]: 1000 to 10000 nM"
–,–,–,< 100,"Nc1n[nH]c2ncc(-c3ccc(CNc4ncc(C(F)(F)F)cc4C(=O)NCC4CCCO4)cc3)cc12 (stereo not drawn) [Example 265, 2-(4-(3-amino-1H-pyrazolo [3,4-b]pyridin-5-yl)benzylamino)-N-((tetrahydrofuran-2-yl)methyl)-5-(trifluoromethyl) nicotinamide]","EC50 [1, 6]: 1000 to 10000 nM"
–,–,< 1000,< 100,"N#Cc1cnc(NCc2ccc(-c3c[nH]c4ncnc(N)c34)cc2)c(C(=O)Nc2ccc(F)cc2)n1 [Example 320, 3-(4-(4-amino-7H-pyrrolo[2,3-d]pyrimidin-5-yl)benzylamino)-6-cyano-N-(4-fluorophenyl) pyrazine-2-carboxamide]",–
–,–,< 1000,< 100,"Nc1n[nH]c2ncc(-c3ccc(CNc4ncc(C(F)(F)F)cc4C(=O)NCc4cccc(Cl)c4)cc3)cc12 [Example 281, 2-(4-(3-amino-1H-pyrazolo [3,4-b]pyridin-5-yl)benzylamino)-N-(3-chlorobenzyl)-5-(trifluoromethyl)nicotinamide]",–
–,–,< 1000,< 100,"CNc1n[nH]c2ncc(-c3ccc(CNc4ncc(C#N)nc4C(=O)N[C@@H](C)c4ccc(F)c(F)c4)cc3)cc12 [Example 52, (S)-6-cyano-N-(1-(3,4-difluorophenyl)ethyl)-3-(4-(3-(methylamino)-1H-pyrazolo[3,4-b]pyridin-5-yl)benzylamino)pyrazine-2-carboxamide]",–
–,–,< 1000,< 100,"C[C@H](NC(=O)c1cc(C(F)(F)F)cnc1NCc1ccc(-c2cnc3[nH]ncc3c2)cc1)c1ccc(F)cc1 [Example 246, N-[(S)-1-(4-Fluoro-phenyl)-ethyl]-2-[4-(1H-pyrazolo[3,4-b]pyridin-5-yl)-benzylamino]-5-trifluoromethyl-nicotinamide]",–
–,–,–,100 to 1000,"O=C(NCc1ccc(F)c(F)c1)c1cc(C(F)(F)F)cnc1NCc1ccc(-c2cnc(NCCCO)cn2)cc1 [Example 231, N-(3,4-Difluoro-benzyl)-2-{4-[5-(3-hydroxy-propylamino)-pyrazin-2-yl]-benzylamino}-5-trifluoromethyl-nicotinamide]","EC50 [1, 6]: 1000 to 10000 nM"
–,100 to 1000,–,–,"Nc1ncnc2ccc(-c3ccc(CNc4ncccc4C(=O)NCc4cccc(Cl)c4)s3)cc12 [Example 3.27, 2-({[5-(4-aminoquinazolin-6-yl)thiophen-2-yl]methyl}amino)-N-(3-chlorobenzyl) pyridine-3-carboxamide (TFA salt)]","EC50 [1, 5]: > 10000 nM"
